Assay results: US6605666B1, “Polyurethane film-forming dispersions in alcohol-water system” (3M Innovative Properties Company, priority 2000, dated 2003)

Assays:
[1] = Spraying coated dispersion with water solutions (cospraying); assay type: physicochemical; settings: water solution of the compound sprayed on knife coated dispersion of Example 9B
Excerpt: For an ionic dispersion, a solution containing polyion of the opposite charge can be applied to the film to create an instantaneous tack-free film. For example, an anionic dispersion can be coated and before it has formed a film, a solution containing polyvalent cation is sprayed on the coating's surface to yield a tack free film. This method is commonly referred to as “cospraying.” A preferred solution contains water and metal cations, such as calcium and magnesium. Preferably, the film becomes tack free almost instantaneously after spraying the water solution (i.e., within a minute, preferably within a few seconds). In applications where very rapid tack-free times are required, such as in preoperative preparation for surgery, it may be beneficial to mist or otherwise wet the surface of the film. By “tack-free,” it is generally meant that the misted film contains little or no adhesion to other substrates at ambient conditions, typically from about 20° to 30° C.
The dispersions of Example 9B we knife coated onto a polypropylene coated paper release liner and sprayed with water solutions containing the following materials. The film appearance was recorded in the Result column.

[2] = Stability of dispersions on storage / standing; assay type: physicochemical; settings: Example 6 dispersions
Method: The particle size of certain dispersions was measured on a Coulter LS 100 laser Particle Size Analyzer equipped with a microvolume module. Usually, the particle size was measured one day after dispersions were made. The particle size was measured again about 30 days after the dispersions were made. During this period, the dispersions were sealed and stored at room temperature. Samples were diluted in the same solvent mixture as the original dispersion to make the measurement. The results are shown in Table 2 below, which indicate that the dispersions have mean particle sizes generally under about 5 to 6 micrometers (μm). All dispersions appear to be stable after about 30 days.
After adding the prepolymer, each example was adjusted to a pH of about 7.0. To Example 2B was added a 40% solids, water based polyurethane pressure sensitive adhesive (PSA) (WD4006 from H.B. Fuller, St. Paul, Minn.). The PSA was added to increase adhesion to skin. The PSA was added to the alcohol-water solvent system prior to prepolymer addition. The EDA was added and the reaction mixture stirred at high speed for 20 minutes. Stable dispersions were obtained in call cases.
The dispersions with and without iodine anti-microbial agents were applied to human skin in small patches and allowed to dry. Adhesion was very good for all samples.

In the case of [Cl-].[Na+] [Sodium Chloride], the “Result (film appearance)” value [1] is reported as “Random coagulation”.
For [Ca+2].[Cl-].[Cl-] [Calcium chloride], the “Result (film appearance)” value [1] was “Almost instantaneous tack-free film”.
For O=C([O-])CC(O)(CC(=O)[O-])C(=O)[O-].O=C([O-])CC(O)(CC(=O)[O-])C(=O)[O-].[Ca+2].[Ca+2].[Ca+2] [Calcium Citrate], the “Result (film appearance)” value [1] was “No effect”.
For povidone-iodine, the “stability of anti-microbial agent in the dispersions upon standing” value [2] was “split out of the dispersions as a separate phase upon standing”.
